Assays:
Assay type in all cases: biochemical
[1] = target: Recombinant human FGFR2 (Homo sapiens, UniProt P21802); test: Transcreener Kinase Assay of FGFR2; conditions: read-out: FGFR2 (FP) IC50
Method: Transcreener Kinase Assay of FGFR2
• Compounds were solved in DMSO and were diluted with assay buffer to 5 folds of final concentration keeping the DMSO concentration at 5%. Further dilution are needed to make final concentrations are at 1, 0.33, 0.11, 0.037, 0.012, 0.004, 0.0014, 0.0005 μM; (the final concentration of DMSO is 1%). • Enzyme/Substrate stock Preparation: Recombinant human FGFR2 and Poly E4Y are both diluted in assay buffer. The final concentration is 0.3 ng/μL for FGFR2 and 62.5 ng/μL for Poly E4Y. The mixture is being kept in ice before use; • Prepare ATP Diluents, 10 mM ATP is diluted in assay buffer, the final concentration is 25 μM; • Prepare ADP Diluents: diluted ADP (500 μM) in assay buffer, the final concentration is 25 μM; • Prepare ATP standard curve stock as following:
• In a 96-well plate, Add 5 μL of compound or control. (positive control: 5 μL of 5% DMSO; negative control: 5 μL of 500 mM EDTA) into desired wells; • Add 10 μL of Enzyme/Substrate stock into each well; • Add 10 μL of ATP Diluents to initiate the enzyme reaction and votex the plate immediately on a plate shaker; • For the wells to make standard curve, add 5 μL of 5% DMSO, 10 μL of assay buffer and 10 μL of ATP standard curve stock. • Incubate the plate for 45 min at 28[…] on a plate shaker in a low speed.
• Detection Mix Preparation: The mixture is made by dilution with MilliQ water; as following: ADP Alexa633 tracer (1:100), ADP antibody (1:158), and stop & detect buffer (1:10); • Tracer Only control Preparation: The mixture is made by dilution with MilliQ water; as following: ADP Alexa633 tracer (1:100), and stop & detect buffer (1:10) • No Tracer control Preparation: stop & detect buffer is diluted with MilliQ water; by 10 fold. • Add 25 μL of detection mix, Tracer Only control and No Tracer control into corresponding wells, respectively; • Incubate at 28 °C for 1 h, on a plate shaker in a low speed; • Measure florescence polarization (FP) on TECAN F500. Excitation wavelength: 610 nm, Emission wavelength: 670 nm.
(§1) • [ADP] in Compound well represents the ADP concentration in compound well. • [ADP] in Positive control well represents the ADP concentration in 5% DMSO well • Conversion of mP value to ADP concentration is calculated based on the formula which determined by standard curve. And mP value is measured by following the instruction provided by BellBrook Labs. (www.bellbrooklabs.com). 6. IC50: calculated using XL-Fit 2.0 software.

[2] = target: Recombinant human FGFR1 (Homo sapiens, UniProt P11362); test: Transcreener Kinase Assay of FGFR1; conditions: read-out: FGFR1 (FP) IC50
Method: Transcreener Kinase Assay of FGFR1
Prepare Solution • Compounds were solved in DMSO and were diluted with assay buffer to 5 folds of final concentration keeping the DMSO concentration at 5%. Further dilution are needed to make final concentrations are at 1, 0.33, 0.11, 0.037, 0.012, 0.004, 0.0014, 0.0005 μM; (the final concentration of DMSO is 1%). • Enzyme/Substrate stock Preparation: Recombinant human FGFR1 and Poly E4Y are both diluted in assay buffer.
Enzymatic Reaction • In a 96-well plate, Add 5 μL of compound or control. (positive control: 5 μL of 5% DMSO; negative control: 5 μL of 500 mM EDTA) into desired wells; • Add 10 μL of Enzyme/Substrate stock into each well; • Add 10 μL of ATP Diluents to initiate the enzyme reaction and votex the plate immediately on a plate shaker; • For the wells to make standard curve, add 5 μL of 5% DMSO, 10 μL of assay buffer and 10 μL of ATP standard curve stock. • Incubate the plate for 45 min at 28[…] on a plate shaker in a low speed.
Excitation wavelength: 610 nm, Emission wavelength: 670 nm.
as §1

[3] = target: FGFR3 kinase (Homo sapiens, UniProt P22607); test: Z-Lyte Kinase Assay of FGFR3
Method: Z-Lyte Kinase Assay of FGFR3
The final concentrations are 1, 0.33, 0.11, 0.037, 0.012, 0.004, 0.0014, 0.00046 μM, and the final concentration of DMSO is 2%. • 3) Kinase/Peptide Mixture (P/K solution): Prepare Kinase/Peptide Mixture by diluting the kinase to 0.7 μg/ml and the Z-LYTE™ Tyr 4 peptide to 4 μM in 1.33× Kinase Buffer. Mix gently by pipetting. • 4) Phospho-peptide Solution (PP solution): Add 0.4 μl of Z-LYTE™ Tyr 4 Phospho-peptide to 99.6 μl of 1.33× Kinase Buffer. • 5) ATP Solution: Prepare ATP Solution by diluting the 10 mM of ATP in 1.33× Kinase Buffer to 300 uM. • 6) Development Solution: Dilute Development Reagent B with Development Buffer as 1:128.
Shake the plate for 30 Sec and centrifuge (1500 rpm, 1 min) • Seal the plate to protect from the light and incubate the plate for 1 hour at RT (25-30[…]) • 2) Development reaction • Add 5 μl of the Development solution to all wells • Shake the plate for 30 Sec and centrifuge (1500 rpm, 1 min) • Seal the plate to protect from the light and incubate the plate for 1 hour at RT (25-30[…]) • 3) Stop and read • Add 5 μl of the Stop reagent to all wells • Shake the plate for 30 Sec and centrifuge (1500 rpm, 1 min) • Measure the value of Coumarin (Ex400 nm, Em445 nm) and fluorescein (Ex400 nm, Em520 nm), respectively.
Inhibition rate(IR)=1−%Photest Cpd/%PhoC2
• determined with add-in software for Microsoft Excel, XLfit™ (version 2.0) from ID Business Solutions (Guildford, UK)

Sequence of Recombinant human FGFR1 (P11362 22-822): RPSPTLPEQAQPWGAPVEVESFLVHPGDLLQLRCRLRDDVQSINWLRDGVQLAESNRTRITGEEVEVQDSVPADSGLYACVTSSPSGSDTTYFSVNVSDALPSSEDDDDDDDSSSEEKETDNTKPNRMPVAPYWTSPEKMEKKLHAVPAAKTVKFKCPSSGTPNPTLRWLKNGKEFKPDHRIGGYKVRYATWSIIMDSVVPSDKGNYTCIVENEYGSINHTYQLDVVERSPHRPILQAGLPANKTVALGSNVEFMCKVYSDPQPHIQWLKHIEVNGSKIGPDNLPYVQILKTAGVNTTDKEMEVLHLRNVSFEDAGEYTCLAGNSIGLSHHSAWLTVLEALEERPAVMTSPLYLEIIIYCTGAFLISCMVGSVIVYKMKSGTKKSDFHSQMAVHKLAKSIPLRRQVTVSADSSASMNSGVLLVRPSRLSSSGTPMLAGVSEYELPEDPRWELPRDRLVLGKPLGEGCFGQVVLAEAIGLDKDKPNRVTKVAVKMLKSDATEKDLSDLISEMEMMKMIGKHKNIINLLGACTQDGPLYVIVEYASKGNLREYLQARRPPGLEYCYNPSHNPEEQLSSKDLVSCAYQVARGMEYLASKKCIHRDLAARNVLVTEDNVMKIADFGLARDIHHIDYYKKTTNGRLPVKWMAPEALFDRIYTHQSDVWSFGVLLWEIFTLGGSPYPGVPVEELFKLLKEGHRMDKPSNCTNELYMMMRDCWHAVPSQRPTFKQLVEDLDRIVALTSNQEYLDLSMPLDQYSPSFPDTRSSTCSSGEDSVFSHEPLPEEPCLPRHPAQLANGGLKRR
Sequence of FGFR3 kinase (P22607 23-806): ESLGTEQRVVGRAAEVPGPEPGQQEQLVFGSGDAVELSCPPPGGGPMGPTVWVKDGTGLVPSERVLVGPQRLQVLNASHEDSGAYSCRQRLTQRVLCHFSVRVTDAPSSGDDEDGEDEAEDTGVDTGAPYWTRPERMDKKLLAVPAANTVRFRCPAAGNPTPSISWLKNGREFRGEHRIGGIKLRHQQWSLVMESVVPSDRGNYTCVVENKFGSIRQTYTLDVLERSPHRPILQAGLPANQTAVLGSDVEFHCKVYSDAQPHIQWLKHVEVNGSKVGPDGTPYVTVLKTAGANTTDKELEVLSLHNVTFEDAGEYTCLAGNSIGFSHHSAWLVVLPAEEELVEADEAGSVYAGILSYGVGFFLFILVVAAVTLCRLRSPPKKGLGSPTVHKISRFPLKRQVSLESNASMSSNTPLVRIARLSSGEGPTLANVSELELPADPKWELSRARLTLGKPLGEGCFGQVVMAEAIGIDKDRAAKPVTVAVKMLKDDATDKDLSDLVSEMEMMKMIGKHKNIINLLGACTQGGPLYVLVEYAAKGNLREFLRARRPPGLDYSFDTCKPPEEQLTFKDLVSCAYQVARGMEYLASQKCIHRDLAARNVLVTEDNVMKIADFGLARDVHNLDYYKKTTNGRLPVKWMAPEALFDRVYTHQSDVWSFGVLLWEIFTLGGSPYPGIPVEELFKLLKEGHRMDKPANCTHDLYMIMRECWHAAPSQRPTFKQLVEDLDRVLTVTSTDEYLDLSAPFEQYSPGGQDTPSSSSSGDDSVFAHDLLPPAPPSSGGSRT
Sequence of Recombinant human FGFR2 (P21802 22-821): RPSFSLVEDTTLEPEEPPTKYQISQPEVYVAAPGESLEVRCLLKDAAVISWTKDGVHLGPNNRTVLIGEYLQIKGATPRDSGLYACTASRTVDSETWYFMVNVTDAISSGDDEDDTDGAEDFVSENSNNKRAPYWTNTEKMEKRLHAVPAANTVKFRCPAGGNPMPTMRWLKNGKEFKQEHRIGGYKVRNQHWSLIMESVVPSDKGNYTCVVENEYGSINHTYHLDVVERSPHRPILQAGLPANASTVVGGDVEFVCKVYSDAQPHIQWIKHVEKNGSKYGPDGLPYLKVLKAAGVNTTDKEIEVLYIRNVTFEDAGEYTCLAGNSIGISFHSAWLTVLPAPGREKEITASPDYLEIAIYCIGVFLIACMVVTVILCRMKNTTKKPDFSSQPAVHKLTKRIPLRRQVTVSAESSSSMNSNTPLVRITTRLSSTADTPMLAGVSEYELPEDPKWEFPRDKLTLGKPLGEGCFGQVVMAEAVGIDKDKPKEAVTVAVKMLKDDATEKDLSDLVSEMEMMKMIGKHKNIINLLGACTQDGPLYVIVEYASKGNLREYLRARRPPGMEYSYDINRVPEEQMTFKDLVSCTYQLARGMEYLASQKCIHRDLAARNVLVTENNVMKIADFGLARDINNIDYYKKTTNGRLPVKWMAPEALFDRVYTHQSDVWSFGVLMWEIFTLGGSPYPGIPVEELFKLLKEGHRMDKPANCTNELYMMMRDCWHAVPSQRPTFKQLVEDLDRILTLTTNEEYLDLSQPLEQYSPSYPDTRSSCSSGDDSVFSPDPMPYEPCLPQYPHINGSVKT

Row | SMILES | IC50 [1] | IC50 [2] | IC50 [3]
1 | CNC(=O)c1cc(CCc2cnc(Nc3cnn(C4CCNCC4)c3)nc2)c(Cl)c(OC)c1 [Compound 158, 4-chloro-3-methoxy-N-methyl-5-(2-(2-(1-(piperidin-4-yl)-1H-pyrazol-4-ylamino)pyrimidin-5-yl)ethyl)benzamide] | 8 nM | 8 nM | 6 nM
2 | CNC(=O)c1cc(COc2cnc(Nc3ccc(CC(=O)O)cc3)nc2)c(F)c(OC)c1 [Compound 207] | 16 nM | 45 nM | 29 nM
3 | CNC(=O)c1cc(CCc2cnc(Nc3cnn([C@@H]4CCNC4)c3)nc2)c(F)c(OC)c1 [Compound 161] | 9 nM | 17 nM | 12 nM
4 | CCN1CCN(c2ccc(Nc3ncc(CCc4cc(OC)cc(C(=O)NOC(C)C)c4)cn3)cc2)CC1 [Compound 58] | 123 nM | 325 nM | 509 nM
5 | CCN1CCN(c2ccc(Nc3ncc(CCc4cc(C(=O)NOC)cc5c4CCO5)cn3)cc2)CC1 [Compound 6] | 986 nM | 922 nM | 
6 | CNC(=O)c1cc(CCc2cnc(Nc3ccn4c(C)nnc4c3)nc2)c(F)c(OC)c1 [Compound 70] | 16 nM | 27 nM | 22 nM
7 | C#Cc1ccc(Nc2ncc(OCc3cc(C(=O)NC)cc(OC)c3F)cn2)cc1 [Compound 210] | 27 nM | 119 nM | 690 nM
8 | CCn1cnc(Nc2ncc(CCc3cc(C(=O)NC)cc(OC)c3F)cn2)c1 [Compound 28] | 245 nM | 360 nM | 347 nM
9 | CNC(=O)c1cc(CCc2cnc(Nc3c(C)nn(C)c3C)nc2)c(F)c(OC)c1 [Compound 109] | 275 nM | 379 nM | 311 nM
10 | CCOc1cc(CCc2cnc(Nc3ccc(N4CCN(CC)CC4)cc3)nc2)cc(C(=O)NOC)c1 [Compound 51] | 113 nM | 103 nM | 175 nM
11 | CNC(=O)c1cc(COc2cnc(Nc3cnn(C4C[C@@H](C)N[C@@H](C)C4)c3)nc2)c(F)c(OC)c1 (some centres unmarked) [Compound 202] | 6 nM | 15 nM | 7 nM
12 | CNC(=O)c1cc(CCc2cnc(Nc3cnn(CC(=O)N4CCN(C)CC4)c3)nc2)c(F)c(OC)c1 [Compound 144] | 6 nM | 13 nM | 16 nM
13 | CNC(=O)c1cc(CCc2cnc(Nc3cc[n+]([O-])c(C)c3)nc2)c(F)c(OC)c1 [Compound 78, 4-((5-(2-fluoro-3-methoxy-5-(methylcarbamoyl)phenethyl)pyrimidin-2-yl)amino)-2-methylpyridine 1-oxide] | 18 nM | 44 nM | 31 nM
14 | CNC(=O)c1cc(CCc2cnc(Nc3cnn(C4CCNCC4)c3)nc2)c(F)c(OC)c1 [Compound 164] | 8 nM | 8 nM | 8 nM
15 | CNC(=O)c1cc(CCc2cnc(Nc3ccn4cnnc4c3)nc2)c(F)c(OC)c1 [Compound 68] | 13 nM | 31 nM | 25 nM
16 | CCN1CCN(c2ccc(Nc3ncc(CCc4cc(C(=O)NC5CC5)cc5occc45)cn3)cc2)CC1 [Compound 7] | 169 nM | 143 nM | 590 nM
17 | CCN1CC[C@@H](n2cc(Nc3ncc(CCc4cc(C(=O)NC)cc(OC)c4F)cn3)cn2)C1 [Compound 170] | 87 nM | 99 nM | 132 nM
18 | CCn1cc(Nc2ccc(OCc3cc(C(=O)NC)cc(OC)c3F)cn2)cn1 [Compound 187] | 132 nM | 271 nM | 227 nM
19 | CNC(=O)c1cc(CCc2cnc(Nc3cnn([C@H]4CCNC4)c3)nc2)c(F)c(OC)c1 [Compound 162] | 10 nM | 17 nM | 14 nM
20 | CNC(=O)c1cc(C#Cc2cnc(Nc3ccc(N4C[C@@H](C)N[C@@H](C)C4)cc3)nc2)c(Cl)c(OC)c1 [Compound 222, 4-chloro-3-((2-((4-((3S,5R)-3,5-dimethylpiperazin-1-yl)phenyl)amino)pyrimidin-5-yl)ethynyl)-5-methoxy-N-methylbenzamide] | 8 nM | 22 nM | 27 nM
21 | CNC(=O)c1cc(CCc2cnc(Nc3ccc(CC(=O)O)cc3)nc2)c(F)c(OC)c1 [Compound 206] | 13 nM | 38 nM | 21 nM
22 | CNC(=O)c1cc(CCc2cnc(Nc3ccc(N4C[C@@H](C)N[C@@H](C)C4)nc3)nc2)c(Cl)c(OC)c1 [Compound 214] | 11 nM | 10 nM | 17 nM
23 | CCN1CCN(c2ccc(Nc3ncc(CCc4cc(C(=O)NC)cc5occc45)cn3)cc2)CC1 [Compound 4] | 233 nM | 201 nM | 795 nM
24 | CNC(=O)c1cc(CCc2cnc(Nc3cnn(C4CNC4)c3)nc2)c(F)c(OC)c1 [Compound 160] | 10 nM | 15 nM | 16 nM
25 | CNC(=O)c1cc(CCc2cnc(Nc3cccc(N4C[C@@H](C)N[C@@H](C)C4)c3)nc2)cc(OC)c1 [Compound 12] | 25 nM | 98 nM | 128 nM
26 | CNC(=O)c1cc(CCc2cnc(Nc3ccn4c(COC)nnc4c3)nc2)c(F)c(OC)c1 [Compound 73] | 11 nM | 34 nM | 40 nM
27 | CNC(=O)c1cc(COc2cnc(Nc3ccc(N4C[C@@H](C)N[C@@H](C)C4)c(F)c3)nc2)c(Cl)c(OC)c1 [Compound 220] | 4 nM | 10 nM | 10 nM
